In data set [1] the test system is rat cerebellar granule neurons cultured on monolayers of NIH 3T3 fibroblasts. Kind of data set: in vitro neurite outgrowth co-culture assay (axon regeneration). The class given is cell-based. As to conditions: for stimulation of neurite outgrowth (in words): agent included in coculture medium, 16 hour culture; for peptide concentration giving maximal effects in neurite outgrowth assay: rat cerebellar neurons on 3T3 monolayer, 16 hours. As to the method: An example of such an assay is a co-culture assay in which neurons are cultured on top of cellular monolayers for 16 hours, before being fixed and stained with a neuron-specific antibody. The mean length of the longest neurite per cell can then be determined by fluorescence microscopy using an appropriate image analysis programme. The neurons may be, for example, (in this case cerebellar granule cell neurons, hippocampal, dorsal root ganglion, olfactory, motor or dopaminergic neurons. The cellular monolayer is, for example NIH 3T3 fibroblasts.
Monolayers of NIH 3T3 fibroblasts were established by seeding 80,000 cells per well in Lab-Tek 8-chamber slides previously coated sequentially with poly-L-lysine and fibronectin and culturing them overnight in DMEM+10% FCS growth medium.
Cerebellum was dissected from post-natal day 2-4 rat pups and the meninges and extraneous tissue discarded. Cerebellum was chopped into small pieces and trypsinised for 10 minutes at 37° C. Trypsin was neutralised using growth medium and the cells pelletted at 1000×g for 7 minutes. Cerebellar neurons were then resuspended in SATO growth medium containing 2% FCS, counted, and plated on top of the fibroblast monolayer at a density of 1,500 neurons per well. After 16 hours, cocultures were fixed with 4% para-formaldehyde and stained with an anti-GAP43 neuron-specific antibody, which was a gift from Dr Graham Wilkin, Imperial College Department of Biochemistry, London, but any other neuron-specific marker can be used.
The mean neurite length of 150-200 neurons per well was determined using a fluorescent microscope and Zeiss KS300 imaging software.
Peptides A, A(d), B, C, D, E, and F were each incorporated in the SATO medium at a range of concentrations from 0 to 200 μg/ml. Nerve growth factor (NGF) and fibroblast growth factor (FGF2) were used as controls at the same range of concentrations.

The test system of data set [2] is NIH 3T3 cells. Kind of data set: NIH 3T3 cell survival MTS assay in serum-free DMEM (Example 6). The format is cell-based. As to conditions: for survival of NIH3T3 cells in serum-free conditions (in words): FGF2 only at low concentrations; for survival of NIH3T3 cells: low-density cultures. As to the method: NIH 3T3 cells are plated in 96-well plates at a density of 5,500 cells/well in 100 μl DMEM containing 0.5% FCS. After 24 hours, this medium is aspirated from the wells and replaced with 100 μl serum-free DMEM alone, or supplemented with 0.5% FCS (positive control), or a single potential survival factor, with four identical wells set up for each condition. The cells are left for up to seven days at 37 degrees and 8% CO2 before the cell survival is determined using an MTS assay. In this assay 20 μl of MTS substrate is added to each 100 μl well and the plate left in the incubator for up to four hours. Respiring cells produce a coloured reaction product that can be read using a spectrophotometer at 490 nm. […] The mean absorbance at 490 nm+/−SEM is determined for the four identically set up wells. Wells containing a known survival factor such as insulin will contain more living cells after three days than cells cultured in unsupplemented medium.

In the next data set the test system is DRG neurons. The class given is cell-based, rat. As to conditions: 10 ng/ml, 10 days in SATO medium. How it is done: DRG neurons were taken from embryonic day 16 rates and cultured at a density of-10,000 cells/well of a 96-well plate-over 10 days in SATO medium, unsupplemented or supplemented with 10 ng/ml NGF, 10 ng/ml FGF2 or 800 ng/ml Peptide A(d). An OD of 100% reflects the baseline cell survival n the absence of any supplement in the medium.

The subject of another data set is MAP kinase. Briefly: Western blot for tyrosine phosphorylated MAP kinase in NIH 3T3 cells. The format is cell-based. As to conditions: 10 minutes. As to the method: A Western blot (FIG. 2f) was obtained as follows: one million NIH 3T3 cells were serum starved for 24 hours then challenged with the following agents: DMEM, 10% FCS, 0.1 ng/ml FGF2, 1 ng/ml FGF2, 10 ng/ml FGF2, 5 μg/ml insulin, 400 μg/ml peptide 52 for 10 minutes at 37 degrees Celsius before being lysed in sample buffer and band separated by PAGE. Proteins were transferred to PVDF membranes and probed with an antibody that recognises tyrosine phosphorylated MAP kinse (upper panel).
A general note: In western blotting, separated proteins are transferred to a membrane and probed.

The test system of a further data set is NIH 3T3 fibroblasts. Briefly: survival of 3T3 fibroblasts in serum-free DMEM (MTS and morphologic method, Example 5a). The class given is cell-based. As to conditions: in the presence of FGF. As to the method: NIH 3T3 fibroblasts were plated in each well of a 96-well microtitre plate at a density of 7,000 cells per well in DMEM containing 3% FCS and left to attach overnight. The following day the growth medium was removed and replaced with 0.1 ml DMEM supplemented with FGF or Peptide A(d) or both, eight wells for each condition. The negative control was DMEM alone (maximal cell death) and the positive control was supplementation with 0.5% FCS (maximal cell survival).
Six days later (seven days from first plating the cells), the relative number of living cells in each well was assessed by adding the mitochondrial substrate MTS, [3-(4,5-dmethylthiazol-2-yl)-5-(3-carboxymethoxyphenyl)-2-(4-sulphophenyl)-2H-tetrazolium, inner salt), for four hours before reading the optical density on a microtitre plate reader at a wavelength of 490 nm. The optical density gives a measure of the number of respiring cells present in each well at the end of the assay period.
In addition to the biochemical assay, survival was assessed qualitatively using a morphologic method in which cells were plated in 8-chamber Lab Tek slides in DbEM alone (negative control), or DMEM supplemented with 0.5 ng/ml FGF2; 0.5% FCS (positive control), or 25-200 μg/ml Peptide A(d). After three days the cells were fixed with 4% paraformaldehyde, permeablised with methanol and stained with TRITC-conjugated falloidin to visualise the cell cytoskeleton.
On the technique in general: Tetrazolium assays rely on reduction of a dye to a coloured formazan, in cell work by metabolically active cells.

A further data set concerns L6 cell line. Kind of data set: survival of L6 cell line lacking FGF receptors. The class given is cell-based. As to conditions: FGF2 0.1, 1 and 10 ng/ml; Peptide A(d) 100 and 400 μg/ml. As to the method:
FIG. 2d compares the effects of DMEM, FCS, FGF2 at 0.1, 1 and 10 ng/ml, insulin at 0.5 and 5 μg/ml, and Peptide A(d) at 100 and 400 μg/ml.

Data set [3] relates to cells in S phase (bromodeoxyuridine incorporation into DNA). Briefly: bromodeoxyuridine incorporation (entry into S phase) mitogenicity assay. As to conditions: six hours. The class given is cell-based. How it is done:
The mitogenicity of an agent can be determined by testing its ability to stimulate entry of cells into ‘S’ phase in readiness for cell division. This is done by standard methodology and involves incubating cells in the presence of a potential mitogen in DMEM supplemented with bromodeoxyuridine. After six hours the cells are fixed and stained with an antibody recognising bromodeoxyuridine. Cells in S phase can be distinguished by their incorporation of bromodeoxyuridine into DNA.

Data set [4] has as its system NIH 3T3 cells. Briefly: NIH 3T3 survival and morphology, TRITC-conjugated phalloidin staining. The format is cell-based. As to conditions: three days.
The subject of another data set is NIH3T3 cells. Kind of data set: cell survival/proliferation at two plating densities. From the text: FGF2 is a mitogen for a range of cells, including NIH3T3 cells.
Data set [5] has as its system Oligodendrocyte progenitors (O4 positive). The format is cell-based, rat. As to conditions: six days in culture, medium supplemented with insulin. From the text: Oligodendrocyte progenitors (O4 positive) are purified from postnatal day 4 rat cerebral cortex. First a trypsinised preparation of cortical cells is dissociated to single cell suspension and pre-plated to remove unwanted adherent cells such as microglia and macrophages. Oligodendrocyte progenitors express the O4 antigen, and can be purified by panning on petri-dishes coated with anti O4 antibodies. Unbound cells are removed by gentle washing, then O4 positive cells are removed by triturating them off the plate with DMEM containing 1% FCS, through a flame-polished pasteur pipette. O4 positive cells are plated on polyornithine-coated glass coverslips at a density of 500,000 cells per well in minimal growth medium containing insulin or the peptide Ac-DRVEPYSSTA[lys]2[lys] i.e. [{Ac-DRVEPYSSTA}2-K]2-K-OH, Peptide A(d), for six days, before being fixed and stained with the anti O4 antibody. Viable O4 positive cells are counted for each condition

Setting [6] is: insulin 0.5 pg/ml, FGF2 0.1 ng/ml, Peptide A(d) 10 ng/ml.

Here are results for 15 substances from US7304129B2 (Imperial Innovations Limited, priority 2000, dated 2007).

Several values for one entry are separate records, joined by “and”; a condition that tells them apart may be missing. Equal values may be shown once. Entries after “also recorded” stand apart in the source; their conditions may differ. No end group written: not given here.

As for Ac-ARSEPYSSTA-amide (Ac-ARSEPYSSTA-NH2), in [1], the “stimulation of neurite outgrowth (in words)” value (“stimulation” below) is “do not”.

Take Ac-ARVEPYSSTA-amide (Ac-ARVEPYSSTA-NH2): the “stimulation” value in data set [1] is “do not”.

Turning to Ac-PYSSTA-NH2, the “effect on NCAM-stimulated neurite outgrowth” value in data set [1] (NCAM-stimulated, low peptide concentrations) is “able to inhibit NCAM-stimulated neurite outgrowth”. The “stimulation” value in data set [1] is “unable to stimulate neurite outgrowth”.

As to “Ac-SIDRVEPYSSTAQ-amide (Ac-SIDRVEPYSSTAQ-NH2) [synthetic 13 amino acid peptide derived from the first fibronectin type III domain of NCAM]”, in data set [1], the “concentration at which neurite length equalled that stimulated by NCAM” value is 100 µM and the “stimulation” value is listed as “dose-dependent increase in neurite outgrowth”.

For “Acetyl-DAVEPYSSTA-amide (Ac-DAVEPYSSTA-NH2) [Peptide F]”, in data set [1], the “stimulation” value is recorded as “retain the full ability to stimulate neurite outgrowth”.

Regarding “Acetyl-DRSEPYSSTA-amide (Ac-DRSEPYSSTA-NH2) [Peptide E]”, in data set [1], the “stimulation” value is listed as “retain the full ability to stimulate neurite outgrowth”; the “peptide concentration giving maximal effects in neurite outgrowth assay” value was 50-100 μg/ml and 50-100 μM.

For “Acetyl-DRVE-amide (Ac-DRVE-NH2) [Peptide B]”, in data set [1], the “stimulation” value is on record as “could stimulate the response”; the “peptide concentration giving maximal effects in neurite outgrowth assay” value was 75 μg/ml and 150 μM. The “survival of NIH3T3 cells in serum-free conditions (in words)” value in the data set with NIH 3T3 cells [2] is on record as “able to stimulate cell survival”.

Acetyl-EGME-amide [Peptide C]: in [1], the “stimulation” value is “stimulates neurite outgrowth to the same extent as Ac-DRVE-amide”; the “peptide concentration giving maximal effects in neurite outgrowth assay” value is 38 μg/ml and 75 μM. In addition, in the data set with NIH 3T3 cells [2], the “survival of NIH3T3 cells in serum-free conditions (in words)” value is “able to stimulate cell survival”.

“Acetyl-EGMEGM-amide (Ac-EGMEGM-NH2) [Peptide D]”: in data set [1], the “stimulation” value was “equally active” and the “peptide concentration giving maximal effects in neurite outgrowth assay” value was 100 µM.

Consider FGF2: fibroblast growth factor (FGF2), for which the “stimulation” value in data set [1] is reported as “approximately doubles; also recorded: stimulates neurite outgrowth in this assay with a biphasic dose-response curve”. Also, the “increase in DRG neuron survival over unsupplemented baseline” value in the data set with DRG neurons was 73%. Besides, the results for the MAP kinase activation entry with MAP kinase (FGF2 0.1 ng/ml) and in the data set on MAP kinase (FGF2 1 or 10 ng/ml) were “did not; also recorded: do not” and “resulted in MAP kinase activation; also recorded: stimulate MAP kinase activation”, respectively. Further, the “cells remaining compared with the peptide” value in the data set with NIH 3T3 fibroblasts is listed as “far fewer cells remaining”. For the same substance, the “survival of L6 cell line” value in the data set with L6 cell line is recorded as “unable to stimulate the survival”. Further, the “survival of NIH3T3 cells” value with NIH 3T3 cells [2] (FGF2 1 ng/ml) is reported as “ineffective”; in the data set on NIH 3T3 cells [2] (FGF2 10 ng/ml, three days), “stimulates apoptosis”. For the same substance, the “survival of NIH3T3 cells in serum-free conditions (in words)” value with NIH 3T3 cells [2] is on record as “stimulate dose-dependent survival”. For the same substance, the entries for the “mitogenicity (entry into S phase)” value in [3] (FGF2 0.1 ng/ml) and in data set [3] (FGF2 10 ng/ml) were “unable to stimulate entry into S phase” and “mitogenicity of 10 ng/ml FGF2 can be seen”, respectively. In addition, the “cell survival / morphology” value in the data set with NIH 3T3 cells [4] (FGF2 1 and 10 ng/ml) is “reduced in number, and appear apoptotic”; in the data set on NIH 3T3 cells [4] (setting [6]) it was “stimulate cell survival”. Moreover, the “effect on cells plated at low density” value with NIH3T3 cells (5,500 cells per well, 10 ng/ml FGF2) was “stimulates apoptosis”.

NGF: Nerve growth factor (NGF): in data set [1], the “stimulation” value is on record as “approximately doubles”. Besides, in the data set on DRG neurons, the “increase in DRG neuron survival over unsupplemented baseline” value is 121%.

As to “[{Ac-ADTRSVSEYP}2-K]2-K-OH (also: branched lysine tetramer: four chains on [K]2-K core, core C-terminus free acid (-OH)) [Ac-ADTRSVSEYP [lys]2[lys], 'scrambled' version of Peptide A(d)]”, the “survival of NIH3T3 cells in serum-free conditions (in words)” value in the data set on NIH 3T3 cells [2] is “ineffective”.

As for “[{Ac-ARSEPYSSTA}2-K]2-K-OH (also: branched lysine tetramer: four chains on [K]2-K core, core C-terminus free acid (-OH)) [Ac-ARSEPYSSTA [lys]2[lys], "mutated" multimeric peptide]”, in the data set on NIH 3T3 cells [2], the “survival of NIH3T3 cells in serum-free conditions (in words)” value is “stimulated cell survival, though not as potently as the parent peptide”.

With insulin: known survival factor, the MAP kinase activation entry with MAP kinase (insulin 5 μg/ml) was “showed a small activation; also recorded: do not”. In [5], the “cells originally plated that survive” value amounted to 25%. Also, the “survival of NIH3T3 cells in serum-free conditions (in words)” value with NIH 3T3 cells [2] is “stimulate dose-dependent survival”. Moreover, in the data set with NIH 3T3 cells [4] (setting [6]), the “cell survival / morphology” value is “stimulate cell survival”. Also, the cell proliferation entry in the data set with NIH3T3 cells (11,000 cells per well, FGF2 10 ng/ml) was “stimulates cell proliferation”.

On to “soluble NCAM: soluble NCAM (Neuronal Cell Adhesion Molecule)”, for which the “stimulation” value in data set [1] is reported as “approximately doubles”.
